According to patent US20140179664A1, “Heterocyclyl Pyrimidine Analogues As JAK Inhibitors” (Cellzome Limited, priority 2011, published 2014):
pIC50: −log10 of the molar value.

These molecules were tested against T1, JAK3 (Homo sapiens, UniProt P52333) (assay: Kinobeads assay, JAK3). Conditions: mixed Molt4/Ramos lysate, read-out: Inhibition values (IC50) JAK3.
T1 construct: endogenous in cells; host or cells: Molt4 (ATCC CRL-1582) and Ramos (ATCC CRL-1596), mixed lysate 1:2
T1 sequence (P52333 1-1124): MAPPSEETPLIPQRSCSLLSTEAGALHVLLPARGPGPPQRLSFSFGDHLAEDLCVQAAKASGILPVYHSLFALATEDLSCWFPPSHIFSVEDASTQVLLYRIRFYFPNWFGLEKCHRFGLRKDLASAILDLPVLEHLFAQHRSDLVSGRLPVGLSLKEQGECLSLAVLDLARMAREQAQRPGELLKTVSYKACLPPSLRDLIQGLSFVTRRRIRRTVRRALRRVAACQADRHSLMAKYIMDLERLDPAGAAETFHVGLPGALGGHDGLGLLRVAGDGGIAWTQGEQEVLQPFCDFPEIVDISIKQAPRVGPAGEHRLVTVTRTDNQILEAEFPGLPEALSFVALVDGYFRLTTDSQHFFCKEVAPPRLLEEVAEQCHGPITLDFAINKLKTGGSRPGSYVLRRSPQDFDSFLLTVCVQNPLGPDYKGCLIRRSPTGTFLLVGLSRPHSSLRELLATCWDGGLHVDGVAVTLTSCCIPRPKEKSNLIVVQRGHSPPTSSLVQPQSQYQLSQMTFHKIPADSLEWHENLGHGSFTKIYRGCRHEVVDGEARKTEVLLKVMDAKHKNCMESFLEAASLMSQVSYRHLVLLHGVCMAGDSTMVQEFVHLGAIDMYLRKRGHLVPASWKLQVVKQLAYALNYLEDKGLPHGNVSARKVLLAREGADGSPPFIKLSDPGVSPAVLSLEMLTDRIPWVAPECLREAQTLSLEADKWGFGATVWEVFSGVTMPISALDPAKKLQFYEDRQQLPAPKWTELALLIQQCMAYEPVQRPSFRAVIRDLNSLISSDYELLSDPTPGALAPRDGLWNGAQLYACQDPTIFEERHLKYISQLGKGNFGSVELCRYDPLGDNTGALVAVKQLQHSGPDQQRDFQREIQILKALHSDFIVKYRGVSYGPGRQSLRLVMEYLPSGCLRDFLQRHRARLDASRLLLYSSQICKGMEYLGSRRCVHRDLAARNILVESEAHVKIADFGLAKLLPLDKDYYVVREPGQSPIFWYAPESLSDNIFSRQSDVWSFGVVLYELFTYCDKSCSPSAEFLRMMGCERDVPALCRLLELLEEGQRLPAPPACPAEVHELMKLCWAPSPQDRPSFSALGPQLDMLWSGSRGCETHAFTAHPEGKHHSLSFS
Type: binding
Protocol: The compounds of the present invention as described in the previous examples were tested in a Kinobeads™ assay as described for ZAP-70 (WO-A 2007/137867). Briefly, test compounds (at various concentrations) and the affinity matrix with the immobilized aminopyrido-pyrimidine ligand 24 were added to cell lysate aliquots and allowed to bind to the proteins in the lysate sample. After the incubation time the beads with captured proteins were separated from the lysate. Bound proteins were then eluted and the presence of JAK1, JAK2, JAK3 and TYK2 was detected and quantified using specific antibodies in a dot blot procedure and the Odyssey infrared detection system. Dose response curves for individual kinases were generated and IC50 values calculated. Kinobeads™ assays for ZAP-70 (WO-A 2007/137867) and for kinase selectivity profiling (WO-A 2006/134056) have been previously described.
The affinity matrix was washed two times with 15 mL of lx DP buffer containing 0.2% NP40 (IGEPAL® CA-630, Sigma, #13021) and then resuspended in 1×DP buffer containing 0.2% NP40 (3% beads slurry).
5×DP buffer: 250 mM Tris-HCl pH 7.4, 25% Glycerol, 7.5 mM MgCl2, 750 mM NaCl, 5 mM Na3VO4; filter the 5×DP buffer through a 0.22 μm filter and store in aliquots at −80° C. The 5×DP buffer is diluted with H2O to 1×DP buffer containing 1 mM DTT and 25 mM NaF.
Stock solutions of test compounds were prepared in DMSO. In a 96 well plate […] solution of diluted test compounds at 5 mM in DMSO were prepared. Starting with this solution a 1:3 dilution series (9 steps) was prepared. For control experiments (no test compound) a buffer containing 2% DMSO was used.
Molt4 cells (ATCC catalogue number CRL-1582) and Ramos cells (ATCC catalogue number CRL-1596) were grown in 1 L Spinner flasks (Integra Biosciences, #182101) in suspension in RPMI 1640 medium (Invitrogen, #21875-034) supplemented with 10% Fetal Bovine Serum (Invitrogen) at a density between 0.15×10^6 and 1.2×10^6 cells/mL. Cells were harvested by centrifugation, washed once with 1×PBS buffer (Invitrogen, #14190-094) and cell pellets were frozen in liquid nitrogen and subsequently stored at −80° C. Cells were homogenized in a Potter S homogenizer in lysis buffer: 50 mM Tris-HCl, 0.8% NP40, 5% glycerol, 150 mM NaCl, 1.5 mM MgCl2, 25 mM NaF, 1 mM sodium vanadate, 1 mM DTT, pH 7.5. One complete EDTA-free tablet (protease inhibitor cocktail, Roche Diagnostics, 1873580) per 25 mL buffer was added. The material was dounced 10 times using a mechanized POTTER S, transferred to 50 mL falcon tubes, incubated for 30 minutes on ice and spun down for 10 minutes at 20,000 g at 4° C. (10,000 rpm in Sorvall SLA600, precooled). The supernatant was transferred to an ultracentrifuge (UZ)-polycarbonate tube (Beckmann, 355654) and spun for 1 hour at 100.000 g at 4° C. (33.500 rpm in Ti50.2, precooled). The supernatant was transferred again to a fresh 50 mL falcon tube, the protein concentration was determined by a Bradford assay (BioRad) and samples containing 50 mg of protein per aliquot were prepared. The samples were immediately used for experiments or frozen in liquid nitrogen and stored frozen at −80° C.
Cell lysate (approximately 50 mg protein per plate) was thawed in a water bath at room temperature and then stored on ice. To the thawed cell lysate 1×DP 0.8% NP40 buffer containing protease inhibitors (1 tablet for 25 mL buffer; EDTA-free protease inhibitor cocktail; Roche Diagnostics 1873580) was added in order to reach a final protein concentration of 10 mg/mL total protein. The diluted cell lysate was stored on ice. Mixed Molt4/Ramos lysate was prepared by combining one volume of Molt4 lysate and two volumes of Ramos lysate (ratio 1:2).
To a 96 well filter plate (Multiscreen HTS, BV Filter Plates, Millipore #MSBVN1250) were added per well: 100 μL affinity matrix (3% beads slurry), […], of compound solution, and 50 μL of diluted lysate. […]

SMILES | pIC50
OCCn1cc(Nc2ncc(Cl)c(NC(CO)c3cc(F)cc(F)c3)n2)cn1 (stereo not drawn) [Compound 122] | > 7.00
COc1cccc([C@@H](CO)Nc2nc(Nc3cnn(CC(=O)N4CCOCC4)c3)ncc2Cl)c1 [Compound 102] | > 7.00
CCn1cc(Nc2ncc(Cl)c(N[C@H](CO)c3ccccc3OC)n2)cn1 [Compound 95] | > 7.00
O=C(Cn1cc(Nc2ncc(Cl)c(N[C@H](CO)c3ccccc3F)n2)cn1)N1CCOCC1 [Compound 103] | > 7.00
CNC(=O)Cn1cc(Nc2ncc(Cl)c(N[C@H](CO)c3ccccc3F)n2)cn1 [Compound 100] | > 7.00
OCCn1cc(Nc2ncc(F)c(N[C@H](CO)c3ccccc3)n2)cn1 [Compound 10] | > 7.00
CNC(=O)Cn1cc(Nc2ncc(C)c(N[C@H](CO)c3ccccc3)n2)cn1 [Compound 133] | > 7.00
CN1CCC(n2cc(Nc3ncc(Cl)c(N[C@H](CO)c4ccccc4)n3)cn2)C1=O (stereo partly drawn) [Compound 135] | > 7.00
CC[C@@H](Nc1nc(Nc2cnn(C)c2)ncc1Cl)c1ccccc1 [Compound 5] | 6.00 to 7.00
C[C@@H](CO)NC(=O)Cn1cc(Nc2ncc(Cl)c(N[C@H](CO)c3ccccc3F)n2)cn1 [Compound 116] | > 7.00
NCCCn1cc(Nc2ncc(Cl)c(N[C@H](CO)c3ccccc3)n2)cn1 [Compound 113] | > 7.00
CNC(=O)Cn1cc(Nc2ncc(Cl)c(NC(CO)c3cc(F)ccc3F)n2)cn1 (stereo not drawn) [Compound 130] | > 7.00
Cn1cc(Nc2ncc(Cl)c(N[C@H](CO)c3cccc(-c4cnn(C)c4)c3)n2)cn1 [Compound 136] | 6.00 to 7.00
CNC(=O)Cn1cc(Nc2ncc(Cl)c(N[C@H](CO)c3ccccc3OC)n2)cn1 [Compound 98] | > 7.00
COc1ccccc1[C@@H](CO)Nc1nc(Nc2cnn(CC(=O)N3CCOCC3)c2)ncc1Cl [Compound 101] | > 7.00
Cn1cc(Nc2ncc(Cl)c(NC(CO)c3cc(F)cc(F)c3)n2)cn1 (stereo not drawn) [Compound 121] | > 7.00
O=C(NCC(F)(F)F)C(Nc1nc(Nc2cnn(CCO)c2)ncc1Cl)c1ccccc1F (stereo not drawn) [Compound 128] | 6.00 to 7.00
NC(=O)Cn1cc(Nc2ncc(Cl)c(NC(CO)c3cc(F)ccc3F)n2)cn1 (stereo not drawn) [Compound 132] | > 7.00
OCCn1cc(Nc2ncc(Cl)c(N[C@H](CO)c3ccccc3)n2)cn1 [Compound 9] | > 7.00
Cn1cc(Nc2ncc(Cl)c(NC(C)(CO)c3ccccc3)n2)cn1 (stereo not drawn) [Compound 7] | 6.00 to 7.00
Cn1cc(Nc2ncc(Cl)c(N[C@H](CO)c3cc(F)cc(-c4cnn(C)c4)c3)n2)cn1 [Compound 137] | 6.00 to 7.00
Cn1cc(Nc2ncc(Cl)c(NC(CO)c3cc(F)ccc3F)n2)cn1 (stereo not drawn) [Compound 129] | > 7.00
NC(=O)Cn1cc(Nc2ncc(F)c(N[C@H](CO)c3ccccc3)n2)cn1 [Compound 108] | 6.00 to 7.00
O=C(Cn1cc(Nc2ncc(F)c(N[C@H](CO)c3ccccc3)n2)cn1)N1CCOCC1 [Compound 112] | > 7.00
CC(C)OCCn1cc(Nc2ncc(Cl)c(N[C@H](CO)c3ccccc3)n2)cn1 [Compound 114] | > 7.00
Cn1cc(Nc2ncc(Cl)c(N[C@H](CO)c3ccccc3)n2)cn1 [Compound 4] | > 7.00
CC(C)n1cc(Nc2ncc(Cl)c(N[C@H](CO)c3ccccc3F)n2)cn1 [Compound 110] | > 7.00
CN(C)C(=O)C(Nc1nc(Nc2cnn(CCO)c2)ncc1Cl)c1ccccc1F (stereo not drawn) [Compound 127] | 6.00 to 7.00

Next, values leading:

pIC50 | SMILES
> 7.00 | Cn1cc(-c2cc(F)cc([C@@H](CO)Nc3nc(Nc4cnn(CCO)c4)ncc3Cl)c2)cn1 [Compound 152]
> 7.00 | Cn1cc(Nc2ncc(Cl)c(N[C@H](CO)c3cc(F)cc(F)c3)n2)cn1 [Compound 142]
> 7.00 | OCCn1cc(Nc2ncc(Cl)c(N[C@H](CO)c3cc(F)cc(F)c3)n2)cn1 [Compound 143]
> 7.00 | Cn1cc(Nc2ncc(F)c(N[C@H](CO)c3cc(F)cc(F)c3)n2)cn1 [Compound 158]
6.00 to 7.00 | Cn1cc(-c2cccc([C@@H](CO)Nc3nc(Nc4cnn(CCO)c4)ncc3Cl)c2)cn1 [Compound 151]
6.00 to 7.00 | Cn1cc(-c2cc(F)cc([C@@H](CO)Nc3nc(Nc4cnn(CCO)c4)ncc3F)c2)cn1 [Compound 153]
> 7.00 | CNC(=O)Cn1cc(Nc2ncc(Cl)c(N[C@H](CO)c3cc(F)cc(F)c3)n2)cn1 [Compound 145]
> 7.00 | CNC(=O)Cn1cc(Nc2ncc(Cl)c(N[C@H](CO)c3cccc(-c4cnn(C)c4)c3)n2)cn1 [Compound 154]
> 7.00 | CNC(=O)Cn1cc(Nc2ncc(Cl)c(N[C@H](CO)c3cc(F)ccc3F)n2)cn1 [Compound 141]
6.00 to 7.00 | Cc1cnc(Nc2cnn(C)c2)nc1N[C@H](CO)c1cccc(-c2cnn(C)c2)c1 [Compound 149]
6.00 to 7.00 | Cc1cnc(Nc2cnn(C)c2)nc1N[C@H](CO)c1cc(F)cc(F)c1 [Compound 164]
> 7.00 | CNC(=O)Cn1cc(Nc2ncc(Cl)c(N[C@H](CO)c3cc(F)cc(-c4cnn(C)c4)c3)n2)cn1 [Compound 156]
> 7.00 | OCCn1cc(Nc2ncc(F)c(N[C@H](CO)c3cc(F)cc(F)c3)n2)cn1 [Compound 159]
> 7.00 | OC[C@@H](Nc1nc(Nc2cnn(CC(F)F)c2)ncc1Cl)c1ccccc1F [Compound 165]
> 7.00 | CNC(=O)Cn1cc(Nc2ncc(F)c(N[C@H](CO)c3cc(F)ccc3F)n2)cn1 [Compound 148]
> 7.00 | CNC(=O)Cn1cc(Nc2ncc(F)c(N[C@H](CO)c3cc(F)cc(F)c3)n2)cn1 [Compound 161]
6.00 to 7.00 | CNC(=O)Cn1cc(Nc2ncc(F)c(N[C@H](CO)c3cccc(-c4cnn(C)c4)c3)n2)cn1 [Compound 155]
